Experimental findings from US20100239652A1, “IMMUNOLIPOSOMES FOR TREATMENT OF CANCER” (UNIVERSITATSSPITAL BASEL, priority 2008, published 2010) are described below.

Test [1] relates to MDA-MB-231 Vb100 xenograft. The test is described as follows: Tumor xenograft model, multi-drug resistant. Type of test: in vivo. The settings on record: i.v. 10 mg doxorubicin/kg once weekly for 3 weeks, total 30 mg dox/kg, compared to saline. How it is done:
(§1) Efficacy for non-targeted liposomes versus anti-EGFR immunoliposomes were studied in the MDA-MB-231 wild type and resistant breast cancer xenograft tumor model. Swiss nu/nu mice (5-6 weeks; Charles River, France) were injected subcutaneously (s.c.) with EGFR-overexpressing MDA-MB-231 tumor cells (1×10^7 cells, wild type or resistant) into the back of the animal. […] Free drug was injected on the same schedule as liposomes or immunoliposomes intravenously at their MTD of 30 mg dox/kg for doxorubicin. In control groups, saline was administered intravenously at the same injection volume and schedule.
(§2) Tumor growth was monitored for a period of 55-100 days post tumor implantation. Mice were weighted and examined for toxicity three times a week. Tumor measurements were performed 2-3 times weekly using a caliper, and tumor volumes were calculated using the equation: (length × width^2)/2.
Comparators included saline, free doxorubicin and non-targeted liposomal doxorubicin (commercial pegylated liposomal doxorubicin; PLD) at the same dose and schedule as immunoliposomes.
(§3) In addition, a multivariate (rank) test was performed based on the sums of ranks for each mouse. Tumor size at each time point after last treatment was ranked across all mice for that day and the ranks were summed. The sum of the ranks was compared in each case for two treatments by a 2-sample t-test (42).

The next test has as its system MDA-MB-231/mdr cells. The test is described as follows: Accumulation of doxorubicin in the cytoplasma and nuclei. Type of test: cell-based, human. The conditions noted are these: multidrug resistant tumor cells. How it is done:
For comparative accumulation studies, tumor cells (HT-29, HT-29 ROB, MDA-MB-231 or MDA-MB-231 Vb100) have been plated at a density of 200,000 cells per well in 12-well plates. Free doxorubicin, non-targeted liposomal doxorubicin (PLD) and immunoliposomal doxorubicin have been applied at a doxorubicin concentration of 3 μg/ml for 2 h at 37° C., followed by 2 washing rounds with media. Verapamil was added to the experiment in a concentration of 0, 10 or 100 μM. After another 2 h incubation without any treatment cells were analyzed as follows:
After removing the media, cells were washed once with 1 ml of culture medium containing FCS, followed by 1 ml of PBS with calcium and magnesium at room temperature (RT) for 3 min. […] For nuclear accumulation of doxorubicin the pellet with the nuclei was washed twice with 500 μl PBS containing 1% C100T and using subsequent centrifugation as described before. After careful removing of the final supernatant, doxorubicin from the pellets was extracted overnight by 400 μl 50% acid methanol.
From both cytoplasmic and nuclear extracts, 300 μl were transferred into a 96-well plate and measured by a “SpertraMax Gemini Fluorimeter” (Molecular Devices).

The test system of test [2] is MDA-MB-231 wild type xenograft. The test is described as follows: Tumor xenograft model, wild type. Type of test: in vivo. The conditions noted are these: for antitumor effect (tumor growth): i.v. 10 mg doxorubicin/kg once weekly for 3 weeks, total 30 mg dox/kg, compared to saline. How it is done:
as §1, §2
In the wild-type MDA-MB-231 xenograft model lacking mdr features, anti-EGFR immunoliposome-dox was administered i.v. at a total dose of 30 mg dox/kg divided into three weekly doses of 10 mg/kg. […] Control treatments included: saline; free doxorubicin and non-targeted liposomal doxorubicin (commercial pegylated liposomal doxorubicin; PLD) at the same dose and schedule as immunoliposomes.
as §3

The next test deals with HT-29 WT. The test is described as follows: Cytotoxicity study, MTT staining. The class given is cell-based, human. How it is done: (§4) Specific cytotoxicity of EGFR-targeted immunoliposomes containing doxorubicin was evaluated in target cells plated at a density of 8,000 cells per well in 96-well plates and allowed to grow overnight. Immunoliposomes or control treatments were applied for 2 h at 37° C., followed by washing with PBS and re-adding growth media. Cells were further incubated at 37 DC for 3 days and analyzed for cell viability using 3-(4,5-dimethylthiazol-2-yl)-2,5-diphenyl tetrazolium bromide (MTT) staining (41). For the cytotoxicity studies using the efflux pump inhibitor verapamil, this compound was added to the media at a concentration of 100 μM during the complete experiment.

In the next test the test system is HT-29 RDB. The test is described as follows: Cytotoxicity study, MTT staining. Type of test: cell-based, human. How it is done:
as §4

A further test relates to MDA-MB-231 Vb100. The test is described as follows: Cytotoxicity study, MTT staining. The class given is cell-based, human. How it is done: as §4

In brackets after ≈: the same amount, converted by molar mass.

As to `COc1cccc2c1C(=O)c1c(O)c3c(c(O)c1C2=O)C[C@@](O)(C(=O)CO)C[C@@H]3O[C@H]1C[C@H](N)[C@H](O)[C@H](C)O1` [free dox, doxorubicin], the “antitumor effect (tumor growth)” value is listed as “failed to show any activity” in test [1], “did not show any tumor growth inhibition” in test [1] (listed as free doxorubicin) and “some tumor growth inhibition” in test [2]. Further, the intracellular distribution entry with MDA-MB-231/mdr cells is “efficiently pumped out”. Besides, the IC50 turned out to be 0.36 μg dox/ml in the test with HT-29 WT (non-resistant HT-29 cells, summary in description); 0.3 µg/mL (≈ 0.552 µM) with HT-29 WT (treatment for 2 h, MTT after 3 days); 6.0 μg dox/ml with HT-29 RDB (HT-29/mdr cells, summary in description); 9.5 µg/mL (≈ 17.5 µM) in the test on HT-29 RDB (treatment for 2 h, MTT after 3 days, multi-drug resistant sub cell line); 130 µg/mL (≈ 239 µM) in the test with MDA-MB-231 Vb100 (highly drug resistant, 2 h treatment, MTT after 3 days); 0.9 µg/mL in the test on MDA-MB-231 Vb100 (in the presence of verapamil (100 μM)).

B1: EMD72000-ILs-dox (conjugate, chains of the INN, looked up)
VH: QVQLVQSGAEVKKPGASVKVSCKASGYTFTSHWMHWVRQAPGQGLEWIGEFNPSNGRTNYNEKFKSKATMTVDTSTNTAYMELSSLRSEDTAVYYCASRDYDYDGRYFDYWGQGTLVTVSS
VL: DIQMTQSPSSLSASVGDRVTITCSASSSVTYMYWYQQKPGKAPKLLIYDTSNLASGVPSRFSGSGSGTDYTFTISSLQPEDIATYYCQQWSSHIFTFGQGTKVEIK
modifications: doxorubicin-loaded immunoliposomes
Consider B1, for which the “antitumor effect (tumor growth)” value in test [1] and in test [2] was “substantial tumor regressions” throughout. In addition, the “tumor regrowth during follow-up” value in test [2] (after day 77 until end of observation (day 100)) was “did not show growth activity”.
